Assay results as given in US20130079394A1, “Indirect modeling of new repellent molecules active against insects, acarids, and other arthropods” (CNRS (CENTRE NATIONAL RECHERCHE SCIENTIFIQUE), priority 2011, published 2013).

System: not given
Assay: not given
Conditions: reported by US EPA (RED); cited from earlier work

SMILES | deaths among DEET-associated seizure cases [deaths]
CCN(CC)C(=O)c1cccc(C)c1 [DEET, N,N-Diethyl-meta-toluamide] | 4

System: mosquitoes
Assay: not given
Conditions: absence of body odor attractants such as 1-octen-3-ol, lactic acid, or carbon dioxide; cited from earlier work

SMILES | repellent activity in a behavioral test
CCN(CC)C(=O)c1cccc(C)c1 [DEET, N,N-Diethyl-meta-toluamide] | strong repellent activity

System: flies
Assay: Repellency index of coumarin derivatives evaluated in vivo (index from −1 to 1, function of a number of flies)
Design: key to Repellency Index: index from −1 to 1, 1 = highly repellent
Conditions: experimental index ranging from −1 to 1 (1 = highly repellent); measurement error about ±0.1; data set of USSN 61,501,485
Description: Up until now, all existing models for repellency have been based on protection time value, which is different for each. Moreover, the environmental parameters in which the animals are studied are frequently different. As a consequence, data produced using different models cannot be combined/compared. […] The numerical value obtained was not a protection time but rather an index ranging from −1 to 1 (with 1 being highly repellent). This number was calculated for each experiment and is function of a number of flies.
To minimize the deleterious effects of these potentially confounding factors, “repellency classes” were established. Based on the repellency index values, the dataset was divided into 2, 3, 4 or 5 repellency class subsets, in order to reduce the difficulty of modeling the property of slightly repellent molecules. For example, in the four classes' models, the thresholds between the classes are defined as follow: […]

SMILES | Repellency Index
O=C(c1ccc2ccc(=O)oc2c1)N1CCCCC1 [EV 05118] | −0.10
CCC(C)COC(=O)COc1ccc2ccc(=O)oc2c1 (stereo not drawn) [EV 06058] | 0.52
CCCCCCCCOc1ccc2ccc(=O)oc2c1 [EV 06144] | 0.83
CCC(C)Oc1ccc2ccc(=O)oc2c1 (stereo not drawn) [EV 04070] | 0.83
CC(C)COC1CCC2CCC(=O)OC2C1 (stereo not drawn) [EV 04188] | 0.65
CC(C)COc1ccc2oc(=O)ccc2c1 [EV07072] | 0.98
CCC(C)COc1ccc2ccc(=O)oc2c1 (stereo not drawn) [EV 04094] | 0.73
CCCCN(CCCC)C(=O)COc1ccc2ccc(=O)oc2c1 [EV 05120] | 0.71
CCCCCCCCN(CCCCCCCC)C(=O)COc1ccc2ccc(=O)oc2c1 [EV 06092] | 0.35
CCC(C)Oc1cc(=O)oc2ccccc12 (stereo not drawn) [EV 06088] | 0.82
CCCCCCCCN(CCCCCCCC)C(=O)c1ccc2ccc(=O)oc2c1 [EV 06096] | 0.91
CC(C)COc1cc(=O)oc2ccccc12 [EV07070] | 0.94
CCC(CC)OC(=O)c1ccc2ccc(=O)oc2c1 [EV 05162] | 0.62
CCN(CC)C(=O)c1ccc2ccc(=O)oc2c1 [EV 05084] | 0.30
CCC(CC)Oc1ccc2ccc(=O)oc2c1 [EV 04114] | 0.86
CCC(C)OC(=O)c1ccc2ccc(=O)oc2c1 (stereo not drawn) [EV 05178] | 0.71
CCCC(C)Oc1ccc2ccc(=O)oc2c1 (stereo not drawn) [EV 06044] | 0.92
C=CCOc1ccc2ccc(=O)oc2c1 [EV 04032] | 0.19
CC1CCCCN1C(=O)c1ccc2ccc(=O)oc2c1 (stereo not drawn) [EV 05144] | 0.60

SMILES | Repellency Index
CCC(CC)Oc1ccc2oc(=O)ccc2c1 [EV 06018] | 0.43
CCCCCCOc1ccc2ccc(=O)oc2c1 [EV 06110] | 0.78
CCC(C)C(=O)Oc1ccc2ccc(=O)oc2c1 (stereo not drawn) [EV 04030] | −0.10
CCC(C)OC(=O)N1CCCCC1CCOc1ccc2ccc(=O)oc2c1 (stereo not drawn) [EV 04042] | 0.43
C/C=C(\C)C(=O)Oc1ccc2ccc(=O)oc2c1 [EV 04024] | 0.26
CCC(C)CC(=O)Oc1ccc2ccc(=O)oc2c1 (stereo not drawn) [EV 04062] | 0.04
CCN(CC)C(=O)COc1ccc2ccc(=O)oc2c1 [EV 05096] | 0.80
CCCCCOc1ccc2ccc(=O)oc2c1 [EV 06026] | 0.88
CCCCC(CC)C(=O)Oc1ccc2ccc(=O)oc2c1 (stereo not drawn) [EV 04016] | 0.11
CCC(CC)Cc1cc(=O)oc2ccccc12 [EV 06062] | 0.97
CC1CCCCN1C(=O)COc1ccc2ccc(=O)oc2c1 (stereo not drawn) [EV 05134] | 0.78
CC1CCCCC1Oc1ccc2ccc(=O)oc2c1 (stereo not drawn) [EV 04084] | −0.01
CC(C)CCOc1ccc2ccc(=O)oc2c1 [EV 06036] | 0.73
CCCCCCC(C)Oc1ccc2ccc(=O)oc2c1 (stereo not drawn) [EV 06148] | 0.92
CCC(C)OC(=O)COc1ccc2ccc(=O)oc2c1 (stereo not drawn) [EV 06046] | 0.08
CCC(C)NC(=O)c1ccc2ccc(=O)oc2c1 (stereo not drawn) [EV 06166] | 0.25
CCCCCCCCN(CCCCCCCC)C(=O)COc1cc(=O)oc2ccccc12 [EV 07068] | 0.98
CCCCN(CCCC)C(=O)c1ccc2ccc(=O)oc2c1 [EV 05138] | 0.72
C=C(C)C1CC=C(COc2ccc3ccc(=O)oc3c2)CC1 (stereo not drawn) [EV 04090] | 0.40

SMILES | Repellency Index
CCC(C)OC(=O)COc1ccc2ccc(=O)oc2c1 (stereo not drawn) [EV 06178] | 0.25
CC(C)(C)COc1ccc2ccc(=O)oc2c1 [EV 06162] | −0.55
CCC(C)Oc1ccc2ccc(=O)oc2c1 (stereo not drawn) [EV 06188] | 0.87
CC(C)C(C)Oc1ccc2ccc(=O)oc2c1 (stereo not drawn) [EV 06028] | 0.88
CC(C)Oc1ccc2ccc(=O)oc2c1 [EV 04054] | 0.66
CCC(CC)OC(=O)COc1ccc2ccc(=O)oc2c1 [EV 05174] | 0.69
COC(=O)/C=C/c1ccccc1O [EV 05056] | 0.40
CC(C)C(C)Oc1cc(=O)oc2ccccc12 (stereo not drawn) [EV 06128] | 0.34
O=C(COc1ccc2ccc(=O)oc2c1)N1CCCCC1 [EV 05088] | 0.07
CCCCOc1ccc2ccc(=O)oc2c1 [EV 04036] | −0.06
CC(C)CCOc1cc(=O)oc2ccccc12 [EV 06140] | 0.84
CC(=O)OC(C)C(=O)Oc1ccc2ccc(=O)oc2c1 (stereo not drawn) [EV 04122] | −0.36
CCCCCOc1cc(=O)oc2ccccc12 [EV 06136] | 0.77
CCCC(C)Oc1ccc2oc(=O)ccc2c1 (stereo not drawn) [EV 06154] | 0.93
CCCC(C)Oc1cc(=O)oc2ccccc12 (stereo not drawn) [EV 06098] | 0.95
CCCCCCC(C)Oc1cc(=O)oc2ccccc12 (stereo not drawn) [EV07078] | 0.91
CCC(C)Oc1ccc2oc(=O)ccc2c1 (stereo not drawn) [EV 06068] | 0.88
CCC(C)Oc1ccc2ccc(=O)oc2c1 (stereo not drawn) [EV 04058] | 0.76

Same assay, conditions: values used as class thresholds

SMILES | repellency index (RI) of reference repellents
CCC(C)OC(=O)N1CCCCC1CCO (stereo not drawn) [Picaridine, reference compound] | 0.70
CCN(CC)C(=O)c1cccc(C)c1 [DEET, N,N-Diethyl-meta-toluamide] | 0.83
